The structures appear in SMILES notation. Calls of active or inactive are those of the source. The rule behind the calls is not given here.

This series has as its system CCRIS mutagenicity, Ames/micronucleus/aberration tests. Kind of series: CCRIS mutagenicity studies.
The mark [1] stands for this setting: Test System: AMES SALMONELLA TYPHIMURIUM, Strain/Indicator: TA98, Metabolic Activation: NONE, Method: STANDARD PLATE.
Where [2] appears, read: Test System: AMES SALMONELLA TYPHIMURIUM, Strain/Indicator: TA98, Metabolic Activation: RAT, LIVER, S-9, AROCLOR 1254, Method: STANDARD PLATE.
The mark [3] stands for this setting: Test System: AMES SALMONELLA TYPHIMURIUM, Strain/Indicator: TA100, Metabolic Activation: NONE, Method: STANDARD PLATE.

In the case of `CC(C)N=C=NC(C)C`, the mutagenic call reads like this: (End Point: In vivo micronucleus, Test System: Bone marrow polychromatic erythrocytes, Species: Mouse, Strain/Sex: B6C3F1/Male, Route: Intraperitoneal) “inactive; negative”; (End Point: In vivo micronucleus, Test System: Bone marrow polychromatic erythrocytes, Species: Rat, Strain/Sex: F344/N/Male, Route: Intraperitoneal) “inactive; negative”; (End Point: In vivo micronucleus, Test System: Peripheral blood erythrocytes, Species: Mouse, Strain/Sex: B6C3F1/Female, Route: Dermal) “active; positive; 100% mortality at 280 mg/kg”; (End Point: In vivo micronucleus, Test System: Peripheral blood erythrocytes, Species: Mouse, Strain/Sex: B6C3F1/Male, Route: Dermal) “active; positive; 100% mortality at 280 mg/kg”; (End Point: In vivo micronucleus, Test System: Peripheral blood normochromatic and polychromatic erythrocytes and bone marrow polychromatic erythrocytes, Species: Mouse, Strain/Sex: B6C3F1/Male, Route: Dermal) “inactive; positive (peripheral blood); negative (bone marrow)”; (End Point: In vivo micronucleus, Test System: Polychromatic erythrocytes (Bone marrow and peripheral blood), Species: Mouse, Strain/Sex: B6C3F1/Male, Route: Intraperitoneal) “active; positive in peripheral blood polychromatic erythrocytes; no significant increase”. The mutagenic call runs as follows: (Test System: AMES SALMONELLA TYPHIMURIUM, Strain/Indicator: TA98, Metabolic Activation: HAMSTER, LIVER, S-9, AROCLOR 1254, Method: STANDARD PLATE) “inactive; negative”; under setting [1], “inactive; negative”; under setting [2], “inactive; negative”; (Test System: AMES SALMONELLA TYPHIMURIUM, Strain/Indicator: TA100, Metabolic Activation: HAMSTER, LIVER, S-9, AROCLOR 1254, Method: STANDARD PLATE) “inactive; negative”; under setting [3], “inactive; negative”; (Test System: AMES SALMONELLA TYPHIMURIUM, Strain/Indicator: TA100, Metabolic Activation: RAT, LIVER, S-9, AROCLOR 1254, Method: STANDARD PLATE) “inactive; negative”. Also, the mutagenic call was “inactive; negative” (Test System: AMES SALMONELLA TYPHIMURIUM, Strain/Indicator: TA1535, Metabolic Activation: HAMSTER, LIVER, S-9, AROCLOR 1254, Method: STANDARD PLATE); “inactive; negative” (Test System: AMES SALMONELLA TYPHIMURIUM, Strain/Indicator: TA1535, Metabolic Activation: NONE, Method: STANDARD PLATE); “inactive; negative” (Test System: AMES SALMONELLA TYPHIMURIUM, Strain/Indicator: TA1535, Metabolic Activation: RAT, LIVER, S-9, AROCLOR 1254, Method: STANDARD PLATE); “inactive; negative” (Test System: AMES SALMONELLA TYPHIMURIUM, Strain/Indicator: TA1537, Metabolic Activation: HAMSTER, LIVER, S-9, AROCLOR 1254, Method: STANDARD PLATE); “inactive; negative” (Test System: AMES SALMONELLA TYPHIMURIUM, Strain/Indicator: TA1537, Metabolic Activation: NONE, Method: STANDARD PLATE); “inactive; negative” (Test System: AMES SALMONELLA TYPHIMURIUM, Strain/Indicator: TA1537, Metabolic Activation: RAT, LIVER, S-9, AROCLOR 1254, Method: STANDARD PLATE). For the same compound, the mutagenic call is, setting by setting: (Test System: AMES SALMONELLA TYPHIMURIUM, Strain/Indicator: TA1538, Metabolic Activation: HAMSTER, LIVER, S-9, AROCLOR 1254, Method: STANDARD PLATE) “inactive; negative”; (Test System: AMES SALMONELLA TYPHIMURIUM, Strain/Indicator: TA1538, Metabolic Activation: NONE, Method: STANDARD PLATE) “inactive; negative”; (Test System: AMES SALMONELLA TYPHIMURIUM, Strain/Indicator: TA1538, Metabolic Activation: RAT, LIVER, S-9, AROCLOR 1254, Method: STANDARD PLATE) “inactive; negative”; (Test System: Ames Salmonella typhimurium, Strain/Indicator: TA97, Metabolic Activation: None, Method: Preincubation) “inactive; negative”; (Test System: Ames Salmonella typhimurium, Strain/Indicator: TA97, Metabolic Activation: Rat, liver, S-9, Aroclor 1254, Method: Preincubation) “inactive; negative”; (Test System: Ames Salmonella typhimurium, Strain/Indicator: TA97, Metabolic Activation: Syrian hamster, liver, S-9, Aroclor 1254, Method: Preincubation) “inactive; negative”. Besides, the mutagenic call was “inactive; negative” (Test System: Ames Salmonella typhimurium, Strain/Indicator: TA98, Metabolic Activation: None, Method: Preincubation); “inactive; negative” (Test System: Ames Salmonella typhimurium, Strain/Indicator: TA98, Metabolic Activation: Rat, liver, S-9, Aroclor 1254, Method: Preincubation); “inactive; negative” (Test System: Ames Salmonella typhimurium, Strain/Indicator: TA98, Metabolic Activation: Syrian hamster, liver, S-9, Aroclor 1254, Method: Preincubation); “inactive; negative” (Test System: Ames Salmonella typhimurium, Strain/Indicator: TA100, Metabolic Activation: None, Method: Preincubation); “inactive; negative” (Test System: Ames Salmonella typhimurium, Strain/Indicator: TA100, Metabolic Activation: Rat, liver, S-9, Aroclor 1254, Method: Preincubation); “inactive; negative” (Test System: Ames Salmonella typhimurium, Strain/Indicator: TA100, Metabolic Activation: Syrian hamster, liver, S-9, Aroclor 1254, Method: Preincubation). The mutagenic call was “inactive; negative” (Test System: Ames Salmonella typhimurium, Strain/Indicator: TA1535, Metabolic Activation: None, Method: Preincubation); “inactive; negative” (Test System: Ames Salmonella typhimurium, Strain/Indicator: TA1535, Metabolic Activation: Rat, liver, S-9, Aroclor 1254, Method: Preincubation); “inactive; negative” (Test System: Ames Salmonella typhimurium, Strain/Indicator: TA1535, Metabolic Activation: Syrian hamster, liver, S-9, Aroclor 1254, Method: Preincubation); “active; positive. reevaluation of results: positive” (Test System: MOUSE LYMPHOMA, Strain/Indicator: L5178Y (TK+/TK-), Metabolic Activation: NONE, Method: SUSPENSION/PLATE); “active; positive. reevaluation of results: positive” (Test System: MOUSE LYMPHOMA, Strain/Indicator: L5178Y (TK+/TK-), Metabolic Activation: RAT, LIVER, S-9, AROCLOR 1254, Method: SUSPENSION/PLATE).

On to `CC(=O)Nc1cc(O)c2ccc3cccc4ccc1c2c34`, for which the mutagenic call is, setting by setting: (Test System: AMES SALMONELLA TYPHIMURIUM, Strain/Indicator: TA98(1,8-DNP6), Metabolic Activation: NONE, Method: STANDARD PLATE) “active; positive”; (Test System: AMES SALMONELLA TYPHIMURIUM, Strain/Indicator: TA98(1,8-DNP6), Metabolic Activation: RAT, LIVER, S-9, AROCLOR 1254, Method: STANDARD PLATE) “active; positive”; under setting [1], “active; positive”; under setting [2], “active; positive”; (Test System: AMES SALMONELLA TYPHIMURIUM, Strain/Indicator: YG1024, Metabolic Activation: NONE, Method: STANDARD PLATE) “active; positive”; (Test System: AMES SALMONELLA TYPHIMURIUM, Strain/Indicator: YG1024, Metabolic Activation: RAT, LIVER, S-9, AROCLOR 1254, Method: STANDARD PLATE) “active; positive”.

Regarding `[Cl][Pt][Cl].c1cc2c3c(c1)CCCN3CCC2`, the mutagenic call runs as follows: (Test System: AMES SALMONELLA TYPHIMURIUM, Strain/Indicator: TA92, Metabolic Activation: NONE, Method: STANDARD PLATE) “inactive; negative”; under setting [1], “inactive; negative”; under setting [3], “inactive; negative”; (Test System: AMES SALMONELLA TYPHIMURIUM, Strain/Indicator: TA2410, Metabolic Activation: NONE, Method: STANDARD PLATE) “inactive; negative”; (Test System: E. COLI, Strain/Indicator: TM6, Metabolic Activation: NONE, Method: STANDARD PLATE) “inactive; negative”; (Test System: E. COLI, Strain/Indicator: TM9, Metabolic Activation: NONE, Method: STANDARD PLATE) “active; positive”.

Consider `NC(Cn1ccnc1)C(=O)O` (stereo not drawn), for which the mutagenic call by setting is: (Test System: AMES SALMONELLA TYPHIMURIUM, Strain/Indicator: TA98, Metabolic Activation: NONE) “inactive; negative”; (Test System: AMES SALMONELLA TYPHIMURIUM, Strain/Indicator: TA100, Metabolic Activation: NONE) “inactive; negative”; (Test System: AMES SALMONELLA TYPHIMURIUM, Strain/Indicator: TA102, Metabolic Activation: NONE) “inactive; negative”; (Test System: AMES SALMONELLA TYPHIMURIUM, Strain/Indicator: TA1535, Metabolic Activation: NONE) “inactive; negative”; (Test System: AMES SALMONELLA TYPHIMURIUM, Strain/Indicator: TP2428, Metabolic Activation: NONE) “inactive; negative”; (Test System: E. COLI, Strain/Indicator: WP2 UVRA (PKM101), Metabolic Activation: NONE) “active; positive”.

These data come from PubChem BioAssay AID1259407 (Chemical Carcinogenesis Research Information System (CCRIS), 2018).
